Common to all, as to type: in vivo, Caenorhabditis elegans
Experiment [1] deals with C. elegans infected with E. faecalis. In words: Dose response time courses in the C. elegans-E. faecalis infection assay. Conditions: Effective Concentration: survival significantly different from mock-treated, p-value <0.05, logrank; read-out: EC. Here is the method:
(§1) glp-4(bn2); sek-1 (km4) mutant worms were grown to gravid adult stage. 1,000 worms at the L1 stage were grown for 5.2 days at 15° C. on 9-cm plates of SK agar media spread with a lawn of E. coli strain HB101. Embryos from the gravid adults were isolated by a previously described hypochlorite method (see Tan et al., (1999) Proc. Natl. Acad. Sci. USA 96, 715-720) and hatched at 15° C. for 2 days. Approximately 4,500 of the Ll hatchlings were grown on each 9-cm plate of SK-NS agar (SK media with 62.5 U/ml nystatin and 100 μg/ml streptomycin) and with lawns of E. coli HB101. These worms were grown at 25° C. for 52 hours to generate sterile, young adults.
(§2) A culture of E. faecalis MMH594 was grown in BHI broth (BD Difco) with 80 μg/ml kanamycin at 37° C. for 6 hours and 100 μl of the culture were spread onto each 9-cm plate of BHI agar containing 80 μg/mlkanamycin. Lawns of E. faecalis were grown at 25° C. for 16 hours and transferred to 15° C. for 8 hours.
(§3) Sterile adult worms were resuspended in M9 buffer and washed twice with M9 in a 1:10 ratio to remove E. coli. 8,000 worms were pipetted onto each lawn of E. faecalis and incubated 15 hours at 15° C. After infection, the worms were resuspended in M9 and used as described below. 384-well plates (Corning #3712) were filled with 55 μl media (see below) using a Thermo Scientific MULTIDROP Combi reagent dispenser. 0.3 μl of a candidate compound in DSMO were pin transferred into each well using a CyBio CYBI-Well vario transfer system. The plates were agitated using an Eppendorf MIXMATE at 1,800 rpm for 15 seconds. Using the Union Biometrica Complex Object Parametric Analyzer and Sorter (COPAS) BIOSORT worm sorter according to manufacturer's protocols, 15 of the infected worms were transferred to each well in a total volume of approximately 15 μl. Total volume per well is 70 μl/well with a final composition of the media being 20% BHI, […], 80 μg/ml kanamycin, 62.5 U/ml nystatin, 1% DMSO, and 19% sheath solution (Union Biometrica Part #300-5101-000). Plates were vortexed for 5 seconds, centrifuged at 1000×g for 10 seconds, and sealed with gas permeable membranes (BREATHEASY Diversified). Plates were placed in a single layer on the top shelves in a 26.3° C. incubator at 85% relative humidity (RH) and incubated without agitation for 5 days.
The dose dependence of certain antimicrobial compounds identified by the assay above were studied. These compounds were purchased in a larger amount from commercial sources. For each of these compounds, an infection assay was performed essentially as described above at different concentrations except that SYTOX staining was not used. Instead, bright-field images of the wells were acquired at daily time points and scored manually for worm survival by analyzing worm body positioning. […] All compounds used in this assays were confirmed for their identity and purity by liquid chromatography/mass spectrometry.

A further experiment relates to clec-60::GFP. In words: Immune GFP reporter induction, transgene agIs26. Particulars: compound-exposed versus DMSO-exposed animals, visual. An excerpt:
Caenorhabditis elegans strains were maintained on Escherichia coli OP50 as described in Brenner, Genetics, 1974, 77:71-94. Wildtype N2 nematodes carrying integrated transgenes acIs219 (AU78), acIs101(AY101), agIs17(AU133), or agIs26 (AU185) (see (1) Shivers, et al., PLoS. Genet. 2010, 6: e1000892, (2) Bolz et al., J. Biol. Chem. 2010, 285:10832-40, (3) Estes et al., Proc. Natl. Acad. Sci., 2010, 107:2153-8, and (4) Irazoqui et al., Proc. Natl. Acad. Sci., 2008, 105:17469-74) were used to assay the immunomodulatory activity of candidate compounds. […] Fold change was calculated using the Pfaffl method (see Pfaffl et al., Nucleic Acids Res., 2001, 29:e45).
Without wishing to be bound by theory, it was hypothesized that a subset of these compounds cured nematode infection by directly activating the innate immune response of the animal. […] First, the inventors studied four C. elegans strains in which the promoter of the nematode immune response genes T24B8.5, F35E12.5, irg-1 and clec-60 were individually fused to GFP, generating transgenes acIs219 (AU78), acIs101(AY101), agIs17(AU133), or agIs26 (AU185), respectively, thereby allowing a visual readout of gene activity in each strain. […]

The test system of experiment [2] is C. elegans infected with E. faecalis. In words: Automated infection assay for primary compound screening (SYTOX staining, CELLPROFILER). Here is the method: In general, the area of each well that is SYTOX-positive in the fluorescence image is measured and normalized by the total area occupied by all worms, which is quantified in the bright field image. This typically requires illumination correction to flatten lighting abnormalities, adaptive thresholding, and size- and contrast-based filters and masks to exclude debris and other artifacts. By calculating the ratio of the fluorescent area (which corresponds to the area occupied by dead worms) to the total area occupied by all worms, one can accurately determine the number of dead worms in each well. […] In a well where the worms are rescued by ampicillin treatment, 3 of the 14 worms were dead based on manual scoring. The ratio of the fluorescent area to the area occupied by all worms obtained by the CELLPROFILER analysis is correspondingly low at 0.12.
as §1, §2, §3
After 5 days, the bacteria and liquid media in the assay plates were removed as described below. First, the bacteria were re-suspended by shaking on the MIXMATE for 15 seconds at 1,800 rpm, the sealing membrane was removed, and the worms were allowed to settle to the bottom of the wells for 3 minutes. […]

Turning to `NNc1ccc2c(Cl)cc(Cl)c(O)c2n1` [Compound 11], the minimal effective concentration in experiment [1] was determined as 0.2 µg/mL. In the experiment on clec-60::GFP, the “immune reporter induction clec-60::GFP” value was “+”.
For the compound `Cc1ccc(Nc2nc(N)c3ccccc3n2)cc1Cl` [Compound 26], the “curing activity in the primary screen” value in experiment [2] (primary screen) is “cured infected C. elegans”. The “retest in secondary screen” value in experiment [2] (secondary experiment) was “did not re-test”.

For the origin of these results see US9241928B2, “Antimicrobial compounds” (The General Hospital Corporation, priority 2009, dated 2016).
